Counter-ions that a name gives are not always drawn.
Molecular target: T1, HCV polymerase (Hepatitis C virus genotype 1b, UniProt P26663)
T1 construct: a region encoding NS5B (J Virol 1991 March, 65(3), 1105-13, 544 amino acids after deletion of 47 amino acids on the C-terminal); 6xHis (C); made in house; host or cells: Escherichia coli
Assay: biochemical
Parameters: species or system HCV BK strain
Settings: not given
Outline: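 His-tagged NS5B (BK strain, 47-aa C-terminal deletion, E. coli-expressed) at 0.5 μg/ml copied 5 μg/ml run-off RNA bearing the HCV 3′ UTR with 2 μM UTP plus [3H]UTP, 50 μM ATP/GTP, in pH 7.5 Tris with 5 mM MgCl2, 25 °C, 90 min. TCA-precipitated RNA was counted and IC50 calculated.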

T1 sequence (P26663 2420-2963): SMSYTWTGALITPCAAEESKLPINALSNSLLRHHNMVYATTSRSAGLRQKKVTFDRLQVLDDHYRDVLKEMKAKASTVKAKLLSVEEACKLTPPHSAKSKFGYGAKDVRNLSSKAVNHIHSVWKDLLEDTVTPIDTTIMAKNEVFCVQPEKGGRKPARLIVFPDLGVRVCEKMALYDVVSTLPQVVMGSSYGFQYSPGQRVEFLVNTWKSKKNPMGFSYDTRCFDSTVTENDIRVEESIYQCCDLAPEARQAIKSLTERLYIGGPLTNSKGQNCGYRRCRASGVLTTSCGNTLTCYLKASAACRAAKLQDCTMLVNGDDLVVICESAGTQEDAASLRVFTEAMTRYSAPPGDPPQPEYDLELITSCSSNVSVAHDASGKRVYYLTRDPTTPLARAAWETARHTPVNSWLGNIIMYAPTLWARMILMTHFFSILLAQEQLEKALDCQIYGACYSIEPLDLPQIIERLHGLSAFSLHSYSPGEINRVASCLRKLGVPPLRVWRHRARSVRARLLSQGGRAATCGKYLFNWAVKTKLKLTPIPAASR

Compound | IC50 [µM]
Cc1ccc2c(c1)N(CCC13CCC(CC1)N3)CCn1c-2c(C2CCCCC2)c2ccc(C(=O)O)cc21 [Example 1-488, 5-[2-(7-azabicyclo[2.2.1]hept-1-yl)ethyl]-13-cyclohexyl-3-methyl-6,7-dihydro-5H-benzo[5,6][1,4]diazepino[7,1-a]indole-10-carboxylic acid monohydrochloride] | < 0.1
Cc1ccc2c(c1)N(CCC13CCC(CC1)N3CC(=O)O)CCn1c-2c(C2CCCCC2)c2ccc(C(=O)O)cc21 [Example 1-489, 5-[2-(7-carboxymethyl-7-azabicyclo[2.2.1]hept-1-yl)ethyl]-13-cyclohexyl-3-methyl-6,7-dihydro-5H-benzo[5,6][1,4]diazepino[7,1-a]indole-10-carboxylic acid] | < 0.1
N#Cc1ccc2c(c1)N(CCN1CCCCC1)CCn1c-2c(C2CCCCC2)c2ccc(C(=O)O)cc21 [Example 1-490, 3-cyano-13-cyclohexyl-5-[2-(piperidin-1-yl)ethyl]-6,7-dihydro-5H-benzo[5,6][1,4]diazepino[7,1-a]indole-10-carboxylic acid monohydrochloride] | < 0.1
NC(=O)c1ccc2c(c1)N(CCN1CCCCC1)CCn1c-2c(C2CCCCC2)c2ccc(C(=O)O)cc21 [Example 1-491, 3-carbamoyl-13-cyclohexyl-5-[2-(piperidin-1-yl)ethyl]-6,7-dihydro-5H-benzo[5,6][1,4]diazepino[7,1-a]indole-10-carboxylic acid monohydrochloride] | < 0.1
Cc1ccc2c(c1)N(CCC1CCCCC1)CCn1c-2c(C2CCCCC2)c2ccc(C(=O)O)cc21 [Example 1-492, 13-cyclohexyl-5-(2-cyclohexylethyl)-3-methyl-6,7-dihydro-5H-benzo[5,6][1,4]diazepino[7,1-a]indole-10-carboxylic acid] | < 0.1
CCN(CC)CCCCN1CCn2c(c(C3CCCCC3)c3ccc(C(=O)O)cc32)-c2ccc(C)cc21 [Example 1-493, 13-cyclohexyl-5-(4-diethylaminobutyl)-3-methyl-6,7-dihydro-5H-benzo[5,6][1,4]diazepino[7,1-a]indole-10-carboxylic-acid dihydrochloride] | < 0.1
Cc1ccc2c(c1)N(CCN1CCC[C@@H](CCO)C1)CCn1c-2c(C2CCCCC2)c2ccc(C(=O)O)cc21 [Example 1-494, 13-cyclohexyl-5-{2-[(S)-3-(2-hydroxyethyl)piperidin-1-yl)ethyl}-3-methyl-6,7-dihydro-5H-benzo[5,6][1,4]diazepino[7,1-a]indole-10-carboxylic acid dihydrochloride] | < 0.1
O=C(O)c1ccc2c(c1)N(CCN1CCCCC1)CCn1c-2c(C2CCCCC2)c2ccc(C(=O)O)cc21 [Example 1-495, 13-cyclohexyl-5-[2-(piperidin-1-yl)ethyl]-6,7-dihydro-5H-benzo[5,6][1,4]diazepino[7,1-a]indole-3,10-dicarboxylic acid monohydrochloride] | < 0.1
CN1CCn2c(c(C3CCCCC3)c3ccc(C(=O)O)cc32)-c2ccc(OCCCN3CCCCC3)cc21 [Example 1-496, 13-cyclohexyl-5-methyl-3-[3-(piperidin-1-yl)propoxy]-6,7-dihydro-5H-benzo[5,6][1,4]diazepino[7,1-a]indole-10-carboxylic acid dihydrochloride] | < 0.1
O=C(O)c1ccc2c(C3CCCCC3)c3n(c2c1)CCN(CCN1CCC[C@@H](COc2ccccc2)C1)c1ccccc1-3 [Example 1-497, 13-cyclohexyl-5-[2-((R)-3-phenoxymethylpiperidin-1-yl)ethyl]-6,7-dihydro-5H-benzo[5,6][1,4]diazepino[7,1-a]indole-10-carboxylic acid dihydrochloride] | < 0.1
CCOc1ccc2c(c1)N(CCN1CCC[C@@H](COC)C1)CCn1c-2c(C2CCCCC2)c2ccc(C(=O)O)cc21 [Example 1-499, 13-cyclohexyl-3-ethoxy-5-[2-((R)-3-methoxymethylpiperidin-1-yl)ethyl]-6,7-dihydro-5H-benzo[5,6][1,4]diazepino[7,1-a]indole-10-carboxylic acid dihydrochloride] | < 0.1
CCOc1ccc2c(c1)N(CCN1CCCOCC1)CCn1c-2c(C2CCCCC2)c2ccc(C(=O)O)cc21 [Example 1-500, 13-cyclohexyl-3-ethoxy-5-[2-(1,4-oxazepan-4-yl)ethyl]-6,7-dihydro-5H-benzo[5,6][1,4]diazepino[7,1-a]indole-10-carboxylic acid dihydrochloride] | < 0.1
CCOc1ccc2c(c1)N(CCN1CCC(CCOC)CC1)CCn1c-2c(C2CCCCC2)c2ccc(C(=O)O)cc21 [Example 1-501, 13-cyclohexyl-3-ethoxy-5-{2-[4-(2-methoxyethyl)piperidin-1-yl]ethyl}-6,7-dihydro-5H-benzo[5,6][1,4]diazepino[7,1-a]indole-10-carboxylic acid dihydrochloride] | < 0.1
COCCC1CCN(CCN2CCn3c(c(C4CCCCC4)c4ccc(C(=O)O)cc43)-c3ccc(C)cc32)CC1 [Example 1-502, 13-cyclohexyl-5-{2-[4-(2-methoxyethyl)piperidin-1-yl]ethyl}-3-methyl-6,7-dihydro-5H-benzo[5,6][1,4]diazepino[7,1-a]indole-10-carboxylic acid dihydrochloride] | < 0.1
CCN(CC)CC(O)CN1CCn2c(c(C3CCCCC3)c3ccc(C(=O)O)cc32)-c2ccc(Cl)cc21 (centres unmarked) [Example 1-503, 3-chloro-13-cyclohexyl-5-(3-diethylamino-2-hydroxypropyl)-6,7-dihydro-5H-benzo[5,6][1,4]diazepino[7,1-a]indole-10-carboxylic acid dihydrochloride] | < 0.1
CC(=O)N1CCCN(CCN2CCn3c(c(C4CCCCC4)c4ccc(C(=O)O)cc43)-c3ccc(C)cc32)CC1 [Example 1-504, 5-[2-(4-acetyl-1,4-diazepan-1-yl)ethyl]-13-cyclohexyl-3-methyl-6,7-dihydro-5H-benzo[5,6][1,4]diazepino[7,1-a]indole-10-carboxylic acid dihydrochloride] | < 0.1
Cc1ccc2c(c1)NCCn1c-2c(C2CCCCC2)c2ccc(S(N)(=O)=O)cc21 [Example 1-506, 13-cyclohexyl-3-methyl-6,7-dihydro-5H-benzo[5,6][1,4]diazepino[7,1-a]indole-10-sulfonamide] | 0.1 to 1
Cc1ccc2c(c1)N(CCN1CCCCC1)CCn1c-2c(C2CCCCC2)c2ccc(S(N)(=O)=O)cc21 [Example 1-507, 13-cyclohexyl-3-methyl-5-[2-(piperidin-1-yl)ethyl]-6,7-dihydro-5H-benzo[5,6][1,4]diazepino[7,1-a]indole-10-sulfonamide dihydrochloride] | 0.1 to 1
COC[C@@H]1CCCN(CCN2CCn3c(c(C4CCCCC4)c4ccc(C(=O)O)cc43)-c3ccc(OC)cc32)C1 [Example 1-508, 13-cyclohexyl-3-methoxy-5-[2-((R)-3-methoxymethylpiperidin-1-yl)ethyl]-6,7-dihydro-5H-benzo[5,6][1,4]diazepino[7,1-a]indole-10-carboxylic acid dihydrochloride] | < 0.1
COC[C@@H]1CCCN(CCN2CCn3c(c(C4CCCCC4)c4ccc(C(=O)O)cc43)-c3ccc(F)cc32)C1 [Example 1-509, 13-cyclohexyl-3-fluoro-5-[2-((R)-3-methoxymethylpiperidin-1-yl)ethyl]-6,7-dihydro-5H-benzo[5,6][1,4]diazepino[7,1-a]indole-10-carboxylic acid dihydrochloride] | < 0.1
COc1ccc2c(c1)N(CCN1CCCOCC1)CCn1c-2c(C2CCCCC2)c2ccc(C(=O)O)cc21 [Example 1-510, 13-cyclohexyl-3-methoxy-5-[2-(1,4-oxazepan-4-yl)ethyl]-6,7-dihydro-5H-benzo[5,6][1,4]diazepino[7,1-a]indole-10-carboxylic acid dihydrochloride] | < 0.1
CCN(CCCN1CCn2c(c(C3CCCCC3)c3ccc(C(=O)O)cc32)-c2ccc(C)cc21)CCOC [Example 1-511, 13-cyclohexyl-5-{3-[N-ethyl-N-(2-methoxyethyl)amino]propyl}-3-methyl-6,7-dihydro-5H-benzo[5,6][1,4]diazepino[7,1-a]indole-10-carboxylic acid dihydrochloride] | < 0.1
CCN(CCO)CCCN1CCn2c(c(C3CCCCC3)c3ccc(C(=O)O)cc32)-c2ccc(C)cc21 [Example 1-512, 13-cyclohexyl-5-{3-[N-ethyl-N-(2-hydroxyethyl)amino]propyl}-3-methyl-6,7-dihydro-5H-benzo[5,6][1,4]diazepino[7,1-a]indole-10-carboxylic acid dihydrochloride] | < 0.1
CCc1ccc2c(c1)N(CCCN(CC)CCCOC)CCn1c-2c(C2CCCCC2)c2ccc(C(=O)O)cc21 [Example 1-513, 13-cyclohexyl-5-{3-[N-ethyl-N-(3-methoxypropyl)amino]propyl}-3-ethyl-6,7-dihydro-5H-benzo[5,6][1,4]diazepino[7,1-a]indole-10-carboxylic acid dihydrochloride] | < 0.1
CCOCC[C@@H]1CCCN(CCN2CCn3c(c(C4CCCCC4)c4ccc(C(=O)O)cc43)-c3ccc(C)cc32)C1 [Example 1-514, 13-cyclohexyl-5-{2-[(S)-3-(2-ethoxyethyl)piperidin-1-yl]ethyl}-3-methyl-6,7-dihydro-5H-benzo[5,6][1,4]diazepino[7,1-a]indole-10-carboxylic acid dihydrochloride] | < 0.1

Same assay, conditions: 25° C., 90 min; [5,6-3H]UTP incorporation into RNA; read-out: HCV polymerase inhibitory activity IC50

Compound | IC50 [µM]
CCOc1ccc2c(c1)N(CCN1CCCCCCC1)CCn1c-2c(C2CCCCC2)c2ccc(C(=O)O)cc21 [Example 1-498, 5-[2-(azocan-1-yl)ethyl]-13-cyclohexyl-3-ethoxy-6,7-dihydro-5H-benzo[5,6][1,4]diazepino[7,1-a]indole-10-carboxylic acid monohydrochloride] | < 0.1
